{"source": "patent US12448388B2", "about": "“PRMT5 inhibitors and uses thereof” (Gilead Sciences, Inc., priority 2023, dated 2025)", "data": [{"tested_on": "HCT116 MTAP-deleted cell lines", "test": "Cell viability assay (CellTiter-Glo, 7 days), HCT116 MTAP-deleted", "type": "cell-based", "conditions": "Homo sapiens, HCT-116; cell viability, HCT116 MTAP-deleted; class symbols; read-out: CC50", "in_short": "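Dose-response, PRMT5 inhibitors from DMSO serial dilution, pre-spotted; cells seeded onto compound plates. 7 d, 37 °C/5% CO2/90% RH. Readout: CTG luminescence → CC50.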", "units": {"CC50": "nM"}, "values": [{"smiles": "Nc1nc2cc(F)c(C(=O)N3CCO[C@@H]4Cc5cc(C(F)F)c(F)cc5[C@@H]43)cc2n2cncc12", "note": "[Ff-168, (4-amino-7-fluoroimidazo[1,5-a]quinoxalin-8-yl)((4aS,9aR)-7-(difluoromethyl)-6-fluoro-2,3,9,9a-tetrahydroindeno[2,1-b][1,4]oxazin-4(4aH)-yl)methanone]", "CC50": "< 100"}, {"smiles": "Nc1nc2cc(F)c(C(=O)N3CCO[C@@H]4Cc5c(ccc(C(F)F)c5F)[C@@H]43)cc2n2cncc12", "note": "[Ff-169, (4-amino-7-fluoroimidazo[1,5-a]quinoxalin-8-yl)((4aS,9aR)-7-(difluoromethyl)-8-fluoro-2,3,9,9a-tetrahydroindeno[2,1-b][1,4]oxazin-4(4aH)-yl)methanone]", "CC50": "< 100"}, {"smiles": "C[C@@H]1CN(C(=O)c2cc3c(cc2F)nc(N)c2cncn23)[C@H]2c3ccc(C(F)F)c(F)c3C[C@H]2O1", "note": "[Ff-170, (4-amino-7-fluoroimidazo[1,5-a]quinoxalin-8-yl)((2R,4aS,9aR)-7-(difluoromethyl)-8-fluoro-2-methyl-2,3,9,9a-tetrahydroindeno[2,1-b][1,4]oxazin-4(4aH)-yl)methanone]", "CC50": "< 100"}, {"smiles": "C[C@H]1CN(C(=O)c2cc3c(cc2F)nc(N)c2cncn23)[C@H]2c3cc(F)c(OC(F)F)cc3C[C@H]2O1", "note": "[Ff-175, (4-amino-7-fluoroimidazo[1,5-a]quinoxalin-8-yl)((2S,4aS,9aR)-7-(difluoromethoxy)-6-fluoro-2-methyl-2,3,9,9a-tetrahydroindeno[2,1-b][1,4]oxazin-4(4aH)-yl)methanone]", "CC50": "< 100"}, {"smiles": "Nc1nc2cc(F)c(C(=O)N3CCO[C@@H]4Cc5cc(OC(F)(F)F)c(F)cc5[C@@H]43)cc2n2cncc12", "note": "[Ff-176, (4-amino-7-fluoroimidazo[1,5-a]quinoxalin-8-yl)((4aS,9aR)-6-fluoro-7-(trifluoromethoxy)-2,3,9,9a-tetrahydroindeno[2,1-b][1,4]oxazin-4(4aH)-yl)methanone]", "CC50": "< 100"}, {"smiles": "Nc1nc2ccc(C(=O)N3CCO[C@@H]4Cc5cc(OC(F)(F)F)c(F)cc5[C@@H]43)cc2n2cncc12", "note": "[Ff-177, (4-aminoimidazo[1,5-a]quinoxalin-8-yl)((4aS,9aR)-6-fluoro-7-(trifluoromethoxy)-2,3,9,9a-tetrahydroindeno[2,1-b][1,4]oxazin-4(4aH)-yl)methanone]", "CC50": "< 100"}, {"smiles": "Nc1nc2cnc(C(=O)N3CCO[C@@H]4Cc5cc(OC(F)(F)F)c(F)cc5[C@@H]43)cc2n2cncc12", "note": "[Ff-178, (4-aminoimidazo[1,5-a]pyrido[3,4-e]pyrazin-8-yl)((4aS,9aR)-6-fluoro-7-(trifluoromethoxy)-2,3,9,9a-tetrahydroindeno[2,1-b][1,4]oxazin-4(4aH)-yl)methanone]", "CC50": "< 100"}, {"smiles": "Cc1ncc2c(N)nc3cnc(C(=O)N4CCO[C@@H]5Cc6cc(OC(F)(F)F)c(F)cc6[C@@H]54)cc3n12", "note": "[Ff-179, (4-amino-1-methylimidazo[1,5-a]pyrido[3,4-e]pyrazin-8-yl)((4aS,9aR)-6-fluoro-7-(trifluoromethoxy)-2,3,9,9a-tetrahydroindeno[2,1-b][1,4]oxazin-4(4aH)-yl)methanone]", "CC50": "< 100"}, {"smiles": "Cc1ncn2c1c(N)nc1cnc(C(=O)N3CCO[C@@H]4Cc5cc(OC(F)(F)F)c(F)cc5[C@@H]43)cc12", "note": "[Ff-180, (4-amino-3-methylimidazo[1,5-a]pyrido[3,4-e]pyrazin-8-yl)((4aS,9aR)-6-fluoro-7-(trifluoromethoxy)-2,3,9,9a-tetrahydroindeno[2,1-b][1,4]oxazin-4(4aH)-yl)methanone]", "CC50": "< 100"}, {"smiles": "Nc1nc2cc(F)c(C(=O)N3CCO[C@@H]4Cc5cc(OC(F)(F)F)ccc5[C@@H]43)cc2n2cncc12", "note": "[Ff-181, (4-amino-7-fluoroimidazo[1,5-a]quinoxalin-8-yl)((4aS,9aR)-7-(trifluoromethoxy)-2,3,9,9a-tetrahydroindeno[2,1-b][1,4]oxazin-4(4aH)-yl)methanone]", "CC50": "< 100"}, {"smiles": "Nc1nc2cnc(C(=O)N3CCO[C@@H]4Cc5cc(OC(F)(F)F)ccc5[C@@H]43)cc2n2cncc12", "note": "[Ff-182, (4-aminoimidazo[1,5-a]pyrido[3,4-e]pyrazin-8-yl)((4aS,9aR)-7-(trifluoromethoxy)-2,3,9,9a-tetrahydroindeno[2,1-b][1,4]oxazin-4(4aH)-yl)methanone]", "CC50": "< 100"}, {"smiles": "C[C@@H]1CN(C(=O)c2cc3c(cc2F)nc(N)c2cncn23)[C@H]2c3ccc(-c4cnn(C(F)F)c4)c(F)c3C[C@H]2O1", "note": "[Ff-199, (4-amino-7-fluoroimidazo[1,5-a]quinoxalin-8-yl)((2R,4aS,9aR)-7-(1-(difluoromethyl)-1H-pyrazol-4-yl)-8-fluoro-2-methyl-2,3,9,9a-tetrahydroindeno[2,1-b][1,4]oxazin-4(4aH)-yl)methanone]", "CC50": "< 100"}, {"smiles": "C[C@H]1CN(C(=O)c2cc3c(cc2F)nc(N)c2cncn23)[C@H]2c3ccc(-c4cnn(C(F)F)c4)c(F)c3C[C@H]2O1", "note": "[Ff-200, (4-amino-7-fluoroimidazo[1,5-a]quinoxalin-8-yl)((2S,4aS,9aR)-7-(1-(difluoromethyl)-1H-pyrazol-4-yl)-8-fluoro-2-methyl-2,3,9,9a-tetrahydroindeno[2,1-b][1,4]oxazin-4(4aH)-yl)methanone]", "CC50": "< 100"}, {"smiles": "Nc1nc2ccc(C(=O)N(Cc3ccc(C(F)(F)F)cc3F)C34CC(C3)C4)cc2n2cncc12", "note": "[Ff-202, 4-amino-N-(bicyclo[1.1.1]pentan-1-yl)-N-(2-fluoro-4-(trifluoromethyl)benzyl)imidazo[1,5-a]quinoxaline-8-carboxamide]", "CC50": "100 to 1000"}, {"smiles": "CN(C(=O)c1ccc2nc(N)c3cncn3c2c1)[C@@H]1COc2cc(-c3cnn(C(F)(F)F)c3)ccc21", "note": "[Ff-203, (S)-4-amino-N-methyl-N-(6-(1-(trifluoromethyl)-1H-pyrazol-4-yl)-2,3-dihydrobenzofuran-3-yl)imidazo[1,5-a]quinoxaline-8-carboxamide]", "CC50": "< 100"}, {"smiles": "Cn1cc(-c2ccc(CN(C(=O)c3cc4c(cc3F)nc(N)c3cncn34)C34CC(C3)C4)c(F)c2)cn1", "note": "[Ff-204, 4-amino-N-(bicyclo[1.1.1]pentan-1-yl)-7-fluoro-N-(2-fluoro-4-(1-methyl-1H-pyrazol-4-yl)benzyl)imidazo[1,5-a]quinoxaline-8-carboxamide]", "CC50": "< 100"}, {"smiles": "Nc1nc2cc(F)c(C(=O)N(Cc3ccc(-c4cnn(C(F)F)c4)cc3F)C34CC(C3)C4)cc2n2cncc12", "note": "[Ff-205, 4-amino-N-(bicyclo[1.1.1]pentan-1-yl)-N-(4-(1-(difluoromethyl)-1H-pyrazol-4-yl)-2-fluorobenzyl)-7-fluoroimidazo[1,5-a]quinoxaline-8-carboxamide]", "CC50": "< 100"}, {"smiles": "CN(C(=O)c1cc2c(cc1F)nc(N)c1cncn12)C1CCc2nc(Cl)ccc21", "note": "(stereo not drawn) [Ff-208, 4-amino-N-(2-chloro-6,7-dihydro-5H-cyclopenta[b]pyridin-5-yl)-7-fluoro-N-methylimidazo[1,5-a]quinoxaline-8-carboxamide]", "CC50": "100 to 1000"}, {"smiles": "CN(C(=O)c1cc2c(cc1F)nc(N)c1cncn12)C1CCc2nc(Br)ccc21", "note": "(stereo not drawn) [Ff-209, 4-amino-N-(2-bromo-6,7-dihydro-5H-cyclopenta[b]pyridin-5-yl)-7-fluoro-N-methylimidazo[1,5-a]quinoxaline-8-carboxamide]", "CC50": "100 to 1000"}, {"smiles": "Nc1nc2cc(F)c(C(=O)N(Cc3ccc(-c4cnn(C(F)(F)F)c4)cn3)C34CC(C3)C4)cc2n2cncc12", "note": "[Ff-211, 4-amino-N-(bicyclo[1.1.1]pentan-1-yl)-7-fluoro-N-((5-(1-(trifluoromethyl)-1H-pyrazol-4-yl)pyridin-2-yl)methyl)imidazo[1,5-a]quinoxaline-8-carboxamide]", "CC50": "< 100"}, {"smiles": "Nc1nc2cc(F)c(C(=O)N(Cc3ccc(-c4cnn(C(F)F)c4)cn3)C34CC(C3)C4)cc2n2cncc12", "note": "[Ff-212, 4-amino-N-(bicyclo[1.1.1]pentan-1-yl)-N-((5-(1-(difluoromethyl)-1H-pyrazol-4-yl)pyridin-2-yl)methyl)-7-fluoroimidazo[1,5-a]quinoxaline-8-carboxamide]", "CC50": "< 100"}, {"smiles": "CN(C(=O)c1cc2c(cc1F)nc(N)c1cncn12)[C@@H]1COc2cc(-c3cnn(C)c3)ccc21", "note": "[Ff-214, (S)-4-amino-7-fluoro-N-methyl-N-(6-(1-methyl-1H-pyrazol-4-yl)-2,3-dihydrobenzofuran-3-yl)imidazo[1,5-a]quinoxaline-8-carboxamide]", "CC50": "< 100"}, {"smiles": "CC(C)N(Cc1ccc(-c2ccnn2C(F)(F)F)cc1F)C(=O)c1cc2c(cc1F)nc(N)c1cncn12", "note": "[Ff-216]", "CC50": "< 100"}, {"smiles": "CC(C)N(Cc1ccc(-c2ccnn2C)cc1F)C(=O)c1cc2c(cc1F)nc(N)c1cncn12", "note": "[Ff-217, 4-amino-7-fluoro-N-(2-fluoro-4-(1-methyl-1H-pyrazol-5-yl)benzyl)-N-isopropylimidazo[1,5-a]quinoxaline-8-carboxamide]", "CC50": "< 100"}, {"smiles": "Nc1nc2cc(F)c(C(=O)N(Cc3ccc(-c4ccnn4C(F)(F)F)cc3F)C34CC(C3)C4)cc2n2cncc12", "note": "[Ff-218, 4-amino-N-(bicyclo[1.1.1]pentan-1-yl)-7-fluoro-N-(2-fluoro-4-(1-(trifluoromethyl)-1H-pyrazol-5-yl)benzyl)imidazo[1,5-a]quinoxaline-8-carboxamide]", "CC50": "< 100"}, {"smiles": "Cn1nccc1-c1ccc(CN(C(=O)c2cc3c(cc2F)nc(N)c2cncn23)C23CC(C2)C3)c(F)c1", "note": "[Ff-219, 4-amino-N-(bicyclo[1.1.1]pentan-1-yl)-7-fluoro-N-(2-fluoro-4-(1-methyl-1H-pyrazol-5-yl)benzyl)imidazo[1,5-a]quinoxaline-8-carboxamide]", "CC50": "< 100"}, {"smiles": "Cn1cc(N(Cc2ccc(-c3cnn(C(F)(F)F)c3)cc2F)C(=O)c2cc3c(cc2F)nc(N)c2cncn23)cn1", "note": "[Ff-220, 4-amino-7-fluoro-N-(2-fluoro-4-(1-(trifluoromethyl)-1H-pyrazol-4-yl)benzyl)-N-(1-methyl-1H-pyrazol-4-yl)imidazo[1,5-a]quinoxaline-8-carboxamide]", "CC50": "< 100"}]}]}
